For experiment [1], the target named is T1, ROS1 (Homo sapiens, UniProt P08922).
T1 construct: purchased Carna Biosciences 08-163
In words: ROS1 kinase inhibitory activity evaluation (mobility shift, EZ Reader II). To be noted: ROS1 25 pg/μL, FL-Peptide 22 substrate, three separate measurements. Type of experiment: biochemical. Here is the method: Next, a substrate reaction solution was prepared. […] Then, the reaction stop solution was added thereto at a concentration of 40 μL/well. Substrate phosphorylation intensity was measured using EZ Reader II (Caliper Life Sciences).

Experiment [2] has as its target T1, ROS1. Description: ROS1 autophosphorylation inhibitory activity evaluation (ADP-Glo). Type of experiment: biochemical. To be noted: 200 nM inactive ROS1, ATP 1 mM, 25° C. 1.5 hours, ADP generated, four separate measurements. The method in brief:
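IC50 was derived by curve fitting of ADP output measured with ADP-Glo reagents. The output reflects ROS1 self-phosphorylation over 1.5 hours at 25° C. Buffer was HEPES pH 7.5 with MgCl2, Brij-58 and DTT, and ATP was 1 mM final.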

In another experiment the target is T2, NTRK1 (Homo sapiens, UniProt P04629).
T2 construct: purchased Carna Biosciences 08-186
T2 sequence (P04629 33-796): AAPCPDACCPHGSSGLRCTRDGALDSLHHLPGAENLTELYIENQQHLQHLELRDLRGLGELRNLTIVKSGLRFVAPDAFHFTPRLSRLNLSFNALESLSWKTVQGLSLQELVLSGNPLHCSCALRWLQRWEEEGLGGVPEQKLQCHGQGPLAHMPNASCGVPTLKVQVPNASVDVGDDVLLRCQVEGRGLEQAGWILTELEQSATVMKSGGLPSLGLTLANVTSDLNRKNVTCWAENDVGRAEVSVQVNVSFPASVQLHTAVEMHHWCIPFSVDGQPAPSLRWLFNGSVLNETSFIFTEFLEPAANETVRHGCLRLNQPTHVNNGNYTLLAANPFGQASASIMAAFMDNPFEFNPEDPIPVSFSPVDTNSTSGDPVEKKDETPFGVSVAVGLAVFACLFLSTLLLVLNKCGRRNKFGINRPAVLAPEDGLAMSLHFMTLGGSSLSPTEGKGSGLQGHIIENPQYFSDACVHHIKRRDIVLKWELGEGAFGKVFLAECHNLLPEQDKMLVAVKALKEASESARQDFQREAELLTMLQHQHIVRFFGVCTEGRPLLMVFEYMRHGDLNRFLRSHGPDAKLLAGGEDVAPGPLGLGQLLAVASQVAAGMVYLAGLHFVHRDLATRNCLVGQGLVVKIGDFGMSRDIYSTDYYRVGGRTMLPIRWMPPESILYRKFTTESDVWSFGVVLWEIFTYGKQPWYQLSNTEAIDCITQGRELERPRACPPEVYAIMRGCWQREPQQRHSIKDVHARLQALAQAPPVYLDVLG
Description: NTRK kinase enzyme inhibitory activity evaluation, NTRK1. Type of experiment: biochemical. To be noted: FL-Peptide 27 substrate, ATP Km=33 μM, three separate measurements. Here is the method:
(§1) NTRK1, NTRK2, and NTRK3 kinase solutions were each prepared. […]; Next, a substrate reaction solution was prepared.
(§2) Subsequently, a reaction stop solution was prepared. The composition is as follows: 100 mM HEPES (pH 7.4), 0.015% Brij-35, 40 mM EDTA, and 0.1% Coating Reagent 3 (Caliper Life Sciences #760050).
(§3) The NTRK1, NTRK2, and NTRK3 kinase solutions were each added at a concentration of 19 μL/well to a 96-well plate. Each compound for evaluation dissolved in DMSO to achieve each final concentration was added to the plate, mixed using a plate mixer, and then preincubated at room temperature for 20 minutes. […] Then, the reaction stop solution was added thereto at a concentration of 40 μL/well. Substrate phosphorylation intensity was measured using EZ Reader II (Caliper Life Sciences). IC50 values were calculated by curve fitting using Microsoft Excel 2010 on the basis of data obtained from three separate measurements.

The target of a further experiment is T3, NTRK2 (Homo sapiens, UniProt Q16620).
T3 construct: purchased Carna Biosciences 08-187
T3 sequence (Q16620 32-822): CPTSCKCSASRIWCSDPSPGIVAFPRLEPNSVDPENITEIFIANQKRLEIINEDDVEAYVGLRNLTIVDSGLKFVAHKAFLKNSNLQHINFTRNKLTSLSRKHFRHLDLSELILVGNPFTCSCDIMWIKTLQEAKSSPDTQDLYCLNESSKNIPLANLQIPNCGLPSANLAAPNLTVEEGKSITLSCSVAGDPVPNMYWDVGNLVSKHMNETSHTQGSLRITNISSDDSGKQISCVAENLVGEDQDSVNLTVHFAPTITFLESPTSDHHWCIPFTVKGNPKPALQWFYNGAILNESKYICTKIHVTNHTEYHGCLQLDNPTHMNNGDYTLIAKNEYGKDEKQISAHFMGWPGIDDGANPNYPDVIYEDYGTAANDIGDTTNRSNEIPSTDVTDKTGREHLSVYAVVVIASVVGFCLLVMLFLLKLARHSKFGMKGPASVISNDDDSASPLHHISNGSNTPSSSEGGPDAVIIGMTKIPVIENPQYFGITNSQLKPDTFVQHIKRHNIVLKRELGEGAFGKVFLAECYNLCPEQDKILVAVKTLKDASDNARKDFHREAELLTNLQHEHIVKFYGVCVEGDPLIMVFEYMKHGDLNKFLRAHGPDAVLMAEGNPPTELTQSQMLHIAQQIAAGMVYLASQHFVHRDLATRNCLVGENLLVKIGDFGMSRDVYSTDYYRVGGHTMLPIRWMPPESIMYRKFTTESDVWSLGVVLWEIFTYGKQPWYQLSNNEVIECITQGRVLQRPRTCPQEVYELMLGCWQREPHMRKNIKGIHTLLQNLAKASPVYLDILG
In words: NTRK kinase enzyme inhibitory activity evaluation, NTRK2. Format: biochemical. To be noted: FL-Peptide 27 substrate, ATP Km=63 μM, three separate measurements. Here is the method:
as §1, §2, §3

The target of the next experiment is T4, NTRK3 (Homo sapiens, UniProt Q16288).
T4 construct: purchased Carna Biosciences 08-197
T4 sequence (Q16288 32-839): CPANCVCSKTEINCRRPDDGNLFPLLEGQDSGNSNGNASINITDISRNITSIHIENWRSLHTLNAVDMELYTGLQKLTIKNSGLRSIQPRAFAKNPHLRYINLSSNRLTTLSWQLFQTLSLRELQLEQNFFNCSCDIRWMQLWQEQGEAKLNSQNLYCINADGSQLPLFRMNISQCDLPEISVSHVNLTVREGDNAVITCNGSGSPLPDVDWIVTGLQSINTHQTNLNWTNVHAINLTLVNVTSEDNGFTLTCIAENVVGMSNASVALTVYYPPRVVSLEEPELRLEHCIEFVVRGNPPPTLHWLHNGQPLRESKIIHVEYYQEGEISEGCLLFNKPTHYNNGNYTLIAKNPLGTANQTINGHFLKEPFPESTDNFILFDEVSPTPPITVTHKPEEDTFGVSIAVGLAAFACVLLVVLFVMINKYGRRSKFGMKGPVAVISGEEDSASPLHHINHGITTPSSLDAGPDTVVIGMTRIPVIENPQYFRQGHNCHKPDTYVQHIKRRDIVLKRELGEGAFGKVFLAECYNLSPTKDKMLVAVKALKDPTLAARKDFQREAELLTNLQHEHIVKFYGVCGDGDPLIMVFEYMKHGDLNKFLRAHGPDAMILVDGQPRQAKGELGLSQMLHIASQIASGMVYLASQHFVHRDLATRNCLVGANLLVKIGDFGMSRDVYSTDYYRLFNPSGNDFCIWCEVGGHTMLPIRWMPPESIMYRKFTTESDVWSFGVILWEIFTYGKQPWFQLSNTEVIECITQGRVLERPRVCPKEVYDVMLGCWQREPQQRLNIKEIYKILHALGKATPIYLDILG
In words: NTRK kinase enzyme inhibitory activity evaluation, NTRK3. Type of experiment: biochemical. To be noted: FL-Peptide 27 substrate, ATP Km=32 μM, three separate measurements. Here is the method: as §1, §2, §3

The subject of experiment [3] is HCC78 cells having ROS1 fusion gene. In words: HCC78 cell growth assay (CellTiter-Glo). Type of experiment: cell-based. The following applies: Homo sapiens, HCC78, 72 h, 72 hours culture, 2% FBS medium, luminescence, four separate measurements; read-out: growth inhibitory effect on HCC78 cells having ROS1 fusion gene IC50. A general note: Cellular ATP, detected with luciferase, serves as a proxy for viable cell number.

This is an account of results in US9751887B2, “Imidazo[1,2-b]pyridazine derivatives as kinase inhibitors” (Daiichi Sankyo Company, Limited, priority 2012, dated 2017).

As usually defined, the IC50 is the point on the concentration scale where inhibition reaches its midpoint.

T1 sequence (P08922 28-2347): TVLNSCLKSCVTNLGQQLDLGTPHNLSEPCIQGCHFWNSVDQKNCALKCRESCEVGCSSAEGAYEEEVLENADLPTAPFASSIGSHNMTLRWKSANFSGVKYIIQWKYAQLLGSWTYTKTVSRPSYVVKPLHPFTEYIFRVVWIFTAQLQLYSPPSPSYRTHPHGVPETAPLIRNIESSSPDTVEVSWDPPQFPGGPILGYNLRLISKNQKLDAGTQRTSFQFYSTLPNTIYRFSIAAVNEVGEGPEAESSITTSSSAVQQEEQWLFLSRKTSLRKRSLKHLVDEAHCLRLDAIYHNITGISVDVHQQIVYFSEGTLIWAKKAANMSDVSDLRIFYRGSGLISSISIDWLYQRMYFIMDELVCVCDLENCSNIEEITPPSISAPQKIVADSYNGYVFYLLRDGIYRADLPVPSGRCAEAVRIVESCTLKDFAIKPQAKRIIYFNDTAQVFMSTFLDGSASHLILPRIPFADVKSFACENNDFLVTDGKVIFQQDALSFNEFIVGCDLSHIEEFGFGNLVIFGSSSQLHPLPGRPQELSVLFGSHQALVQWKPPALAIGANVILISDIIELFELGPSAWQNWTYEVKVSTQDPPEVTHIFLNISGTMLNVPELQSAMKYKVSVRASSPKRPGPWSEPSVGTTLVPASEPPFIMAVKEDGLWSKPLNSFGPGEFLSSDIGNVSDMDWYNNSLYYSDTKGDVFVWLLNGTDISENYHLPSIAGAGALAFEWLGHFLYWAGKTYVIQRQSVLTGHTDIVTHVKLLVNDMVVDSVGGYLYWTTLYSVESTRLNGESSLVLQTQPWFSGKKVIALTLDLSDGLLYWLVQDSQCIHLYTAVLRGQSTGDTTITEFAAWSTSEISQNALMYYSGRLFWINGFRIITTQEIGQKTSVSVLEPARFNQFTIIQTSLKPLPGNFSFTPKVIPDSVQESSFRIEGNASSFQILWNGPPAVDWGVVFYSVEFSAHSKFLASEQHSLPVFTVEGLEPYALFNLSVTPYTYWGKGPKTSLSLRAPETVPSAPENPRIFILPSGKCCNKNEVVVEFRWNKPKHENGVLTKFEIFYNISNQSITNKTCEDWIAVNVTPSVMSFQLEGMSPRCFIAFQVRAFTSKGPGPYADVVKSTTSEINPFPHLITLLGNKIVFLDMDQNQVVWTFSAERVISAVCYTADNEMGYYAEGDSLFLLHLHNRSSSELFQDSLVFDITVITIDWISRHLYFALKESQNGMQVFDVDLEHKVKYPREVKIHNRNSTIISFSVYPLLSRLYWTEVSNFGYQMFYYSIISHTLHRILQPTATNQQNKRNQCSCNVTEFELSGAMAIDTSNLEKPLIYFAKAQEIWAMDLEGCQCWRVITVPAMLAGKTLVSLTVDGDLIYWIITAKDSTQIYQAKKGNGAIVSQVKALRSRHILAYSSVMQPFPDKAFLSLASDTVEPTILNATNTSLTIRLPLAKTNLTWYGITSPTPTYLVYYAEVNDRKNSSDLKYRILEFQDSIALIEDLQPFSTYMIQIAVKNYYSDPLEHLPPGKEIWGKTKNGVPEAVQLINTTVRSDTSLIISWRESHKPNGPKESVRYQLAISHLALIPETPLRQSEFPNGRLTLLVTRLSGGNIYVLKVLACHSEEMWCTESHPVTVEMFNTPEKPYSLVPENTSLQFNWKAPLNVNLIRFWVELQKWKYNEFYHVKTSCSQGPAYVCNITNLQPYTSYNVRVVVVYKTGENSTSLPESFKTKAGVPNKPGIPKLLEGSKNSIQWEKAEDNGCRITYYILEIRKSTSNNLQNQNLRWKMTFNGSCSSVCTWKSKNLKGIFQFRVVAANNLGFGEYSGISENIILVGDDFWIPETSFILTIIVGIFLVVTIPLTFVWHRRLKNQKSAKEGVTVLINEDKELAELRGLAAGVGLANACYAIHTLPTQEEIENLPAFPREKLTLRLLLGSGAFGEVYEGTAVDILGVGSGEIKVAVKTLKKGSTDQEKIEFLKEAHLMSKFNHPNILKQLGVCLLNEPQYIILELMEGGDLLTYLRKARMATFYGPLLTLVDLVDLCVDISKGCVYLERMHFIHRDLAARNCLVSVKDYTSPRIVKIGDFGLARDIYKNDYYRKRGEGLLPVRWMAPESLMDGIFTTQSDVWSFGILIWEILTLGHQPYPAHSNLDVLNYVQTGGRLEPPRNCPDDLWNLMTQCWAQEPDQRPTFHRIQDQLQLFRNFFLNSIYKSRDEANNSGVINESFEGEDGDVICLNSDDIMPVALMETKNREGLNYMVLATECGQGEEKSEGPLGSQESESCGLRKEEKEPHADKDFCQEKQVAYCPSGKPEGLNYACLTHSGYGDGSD

`C[C@@H](Nc1ccc2ncc(-c3ccc(OC[C@@H]4CCN4)cc3)n2n1)c1cccc(F)c1` [Example 30, 3-[4-[[(2S)-Azetidin-2-yl]methoxy]phenyl]-N-[(1R)-1-(3-fluorophenyl)ethyl]imidazo[1,2-b]pyridazin-6-amine]: the IC50 at ROS1 [1] is < 1 nM; against ROS1 [2] it was < 20 nM; against NTRK1 it was < 5 nM; on NTRK2 it was < 10 nM; at NTRK3, < 5 nM; in experiment [3], < 20 nM.
For `CN(Cc1cccc(F)c1)c1ccc2ncc(-c3ccc(N4C[C@@H](N)CC4=O)cc3)n2n1` [Example 81, (4S)-4-Amino-1-[4-[6-[(3-fluorophenyl)methyl-methylamino]imidazo[1,2-b]pyridazin-3-yl]phenyl]pyrrolidin-2-one], the IC50 on ROS1 [1] is < 1 nM; against ROS1 [2], < 20 nM; against NTRK1, < 5 nM; on NTRK2, < 10 nM; against NTRK3, < 5 nM; in experiment [3] it was < 20 nM.
`COc1cc(N2C[C@@H](N)CC2=O)ccc1-c1cnc2ccc(N(C)Cc3cccc(F)c3)nn12` [Example 85, (4S)-4-Amino-1-[4-[6-[(3-fluorophenyl)methyl-methylamino]imidazo[1,2-b]pyridazin-3-yl]-3-methoxyphenyl]pyrrolidin-2-one]: the IC50 is 1 to 10 nM at ROS1 [1]; < 20 nM against ROS1 [2]; < 5 nM against NTRK1; < 10 nM against NTRK2; < 5 nM on NTRK3; 20 to 100 nM in experiment [3].
With `C[C@@H](Nc1ccc2ncc(-c3ccc(N4C[C@@H](N)CC4=O)cc3)n2n1)c1cccc(F)c1` [Example 90, (4S)-4-Amino-1-[4-[6-[[(1R)-1-(3-fluorophenyl)ethyl]amino]imidazo[1,2-b]pyridazin-3-yl]phenyl]pyrrolidin-2-one], the concentration for half-maximal inhibition (IC50) was < 1 nM on ROS1 [1]; < 20 nM against ROS1 [2]; < 5 nM on NTRK1; < 10 nM against NTRK2; < 5 nM against NTRK3; < 20 nM in experiment [3].
In the case of `C[C@@H](Oc1ccc2ncc(-c3ccc(N4C[C@@H](N)CC4=O)nc3)n2n1)c1cccc(F)c1` [Example 127, (4S)-4-Amino-1-[5-[6-[(1R)-1-(3-fluorophenyl)ethoxy]imidazo[1,2-b]pyridazin-3-yl]-2-pyridyl]pyrrolidin-2-one], the IC50 on ROS1 [1] was < 1 nM; on ROS1 [2] it was < 20 nM; at NTRK1, 10 to 15 nM; at NTRK2, 20 to 25 nM; against NTRK3, 5 to 10 nM; in experiment [3] it was 20 to 100 nM.
